The source made the active and inactive calls. The calls are words filed in the database; no cut-off is given here.
Key:
[1] = tested on: NCI-H1975; assay: Antiproliferative activity against human NCI-H1975 cells after 72 hrs by CCK8 assay; type: functional
[2] = molecular target: Serine/threonine-protein kinase PLK2 (Homo sapiens, UniProt Q9NYY3); assay: Inhibition human recombinant full length GST-tagged Plk2 expressed in baculovirus expression system after 1 hr by FRET-based Z'-Lyte assay
[3] = tested on: MCF7; assay: Antiproliferative activity against human MCF7 cells after 72 hrs by CCK8 assay; type: functional
[4] = tested on: K562; assay: Antiproliferative activity against human K562 cells after 72 hrs by CCK8 assay; type: functional
[5] = tested on: Huh-7; assay: Antiproliferative activity against human HuH7 cells after 72 hrs by CCK8 assay; type: functional
[6] = tested on: A549; assay: Antiproliferative activity against human A549 cells after 72 hrs by CCK8 assay; type: functional
[7] = tested on: HeLa; assay: Antiproliferative activity against human HeLa cells after 72 hrs by CCK8 assay; type: functional
[8] = molecular target: Serine/threonine-protein kinase PLK3 (Homo sapiens, UniProt Q9H4B4); assay: Inhibition human recombinant GST-tagged Plk3 catalytic domain (58 to 340 residues) expressed in baculovirus expression system after 1 hr by FRET-based Z'-Lyte assay
Sequence of Serine/threonine-protein kinase PLK3 (Q9H4B4 whole entry, the tested form may be a part): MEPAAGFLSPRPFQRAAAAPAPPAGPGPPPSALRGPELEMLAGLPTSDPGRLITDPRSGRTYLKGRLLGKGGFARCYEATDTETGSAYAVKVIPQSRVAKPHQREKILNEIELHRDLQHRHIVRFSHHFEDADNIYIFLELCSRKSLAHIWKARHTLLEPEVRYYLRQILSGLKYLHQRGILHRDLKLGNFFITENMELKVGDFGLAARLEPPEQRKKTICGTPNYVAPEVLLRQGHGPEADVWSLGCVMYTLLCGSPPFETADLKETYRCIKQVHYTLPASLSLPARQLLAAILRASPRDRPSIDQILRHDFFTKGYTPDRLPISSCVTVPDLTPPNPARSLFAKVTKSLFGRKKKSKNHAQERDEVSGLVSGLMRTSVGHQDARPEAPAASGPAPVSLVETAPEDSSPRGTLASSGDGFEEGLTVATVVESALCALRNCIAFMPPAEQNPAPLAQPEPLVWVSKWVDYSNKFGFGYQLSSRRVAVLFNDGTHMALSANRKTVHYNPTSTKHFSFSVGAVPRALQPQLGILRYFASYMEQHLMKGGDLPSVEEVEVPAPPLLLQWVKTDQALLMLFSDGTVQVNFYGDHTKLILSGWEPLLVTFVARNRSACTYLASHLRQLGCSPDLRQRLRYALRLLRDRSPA

Sequence of Serine/threonine-protein kinase PLK2 (Q9NYY3 whole entry): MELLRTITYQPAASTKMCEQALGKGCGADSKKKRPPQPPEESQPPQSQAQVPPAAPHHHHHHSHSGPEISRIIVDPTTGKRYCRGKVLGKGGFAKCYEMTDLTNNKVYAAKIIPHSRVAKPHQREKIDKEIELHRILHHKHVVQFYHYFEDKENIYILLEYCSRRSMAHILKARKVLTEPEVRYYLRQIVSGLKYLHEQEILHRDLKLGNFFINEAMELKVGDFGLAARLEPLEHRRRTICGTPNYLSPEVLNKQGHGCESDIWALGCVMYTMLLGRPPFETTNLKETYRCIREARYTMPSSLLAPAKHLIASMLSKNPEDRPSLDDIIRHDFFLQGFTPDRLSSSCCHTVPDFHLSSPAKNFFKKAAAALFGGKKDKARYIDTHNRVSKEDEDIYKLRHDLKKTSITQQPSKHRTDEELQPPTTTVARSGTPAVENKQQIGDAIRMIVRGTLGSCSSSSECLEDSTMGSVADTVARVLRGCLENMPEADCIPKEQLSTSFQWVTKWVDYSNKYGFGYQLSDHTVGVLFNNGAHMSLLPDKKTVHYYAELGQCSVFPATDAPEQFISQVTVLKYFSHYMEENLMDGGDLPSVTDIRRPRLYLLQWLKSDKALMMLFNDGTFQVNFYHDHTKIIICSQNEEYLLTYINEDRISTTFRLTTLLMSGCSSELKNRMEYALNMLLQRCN

SMILES	GI50 ([1]; NCI-H1975, 72 h)	IC50 [2]	GI50 ([3]; MCF7, 72 h)	GI50 ([4]; K562, 72 h)	GI50 ([5]; Huh-7, 72 h)	GI50 ([6]; A549, 72 h)	GI50 [7]	IC50 [8]	GI50 [1]	GI50 [3]	GI50 [4]	GI50 [5]	GI50 [6]
CCNC(=O)c1ccc2c(ccn2-c2ncc3c(n2)N(C2CCCC2)[C@H](CC)C(=O)N3C)c1	0.882 µM	0.00488 µM	0.784 µM	0.428 µM	0.596 µM	1.12 µM	0.418 µM						
CCC1C(=O)N(C)c2cnc(Nc3ccc(S(=O)(=O)NCC(C)C)cc3)nc2N1c1ccn(C)n1 (racemic)	15 µM	0.311 µM	8.35 µM	7.3 µM	8.52 µM	31.6 µM	5.31 µM						
CCCCNC(=O)c1ccc2c(ccn2-c2ncc3c(n2)N(C2CCCC2)[C@H](CC)C(=O)N3C)c1	0.99 µM	0.0165 µM	0.634 µM	0.673 µM	0.683 µM	1.16 µM	0.346 µM						
CC[C@@H]1C(=O)N(C)c2cnc(Nc3ccc(S(=O)(=O)NC4CCCC4)cc3)nc2N1C1CCCC1	1.71 µM	0.0239 µM	0.688 µM	0.872 µM	0.389 µM	1.15 µM	0.609 µM						
CC[C@@H]1C(=O)N(C)c2cnc(Nc3ccc(S(N)(=O)=O)cc3)nc2N1C1CCCC1	5.29 µM	0.0102 µM	0.394 µM	0.47 µM	1.3 µM	3.39 µM	0.317 µM						
CC[C@@H]1C(=O)N(C)c2cnc(-n3ccc4ccccc43)nc2N1C1CCCC1	28.3 µM		17.2 µM	6.91 µM	4.69 µM	57.5 µM	33.9 µM	> 20 µM					
CC[C@@H]1C(=O)N(C)c2cnc(-n3ccc4cc(C(N)=O)ccc43)nc2N1C1CCCC1	3.38 µM	0.0285 µM	1.83 µM	1.85 µM	3.09 µM	4.35 µM	0.674 µM						
CC[C@@H]1C(=O)N(C)c2cnc(-n3ccc4cc(C(=O)NC)ccc43)nc2N1C1CCCC1	1.37 µM	0.0086 µM	1 µM	0.705 µM	0.842 µM	2.2 µM	0.768 µM						
CC[C@@H]1C(=O)N(C)c2cnc(Nc3ccc(S(=O)(=O)NCCO)cc3)nc2N1C1CCCC1	2.1 µM	0.00786 µM	0.344 µM	0.546 µM	0.278 µM	0.563 µM	0.459 µM						
CC[C@@H]1C(=O)N(C)c2cnc(Nc3ccc(S(=O)(=O)NCCCO)cc3)nc2N1C1CCCC1	2.14 µM	0.00816 µM	0.363 µM	0.331 µM	0.262 µM	0.437 µM	0.357 µM						
CCC1C(=O)N(C)c2cnc(Nc3ccc(S(=O)(=O)NCCO)cc3)nc2N1c1ccn(C)n1 (racemic)		0.478 µM					inactive		inactive	inactive	inactive	inactive	inactive
CC[C@@H]1C(=O)N(C)c2cnc(Nc3ccc(S(=O)(=O)Nc4ccccc4)cc3)nc2N1C1CCCC1	6 µM	0.0544 µM	5.43 µM	4.18 µM	2.79 µM	4.15 µM	5.14 µM						
CCCNC(=O)c1ccc2c(ccn2-c2ncc3c(n2)N(C2CCCC2)[C@H](CC)C(=O)N3C)c1	0.786 µM	0.0114 µM	0.592 µM	0.395 µM	0.689 µM	1.64 µM	0.238 µM						
CC[C@@H]1C(=O)N(C)c2cnc(Nc3ccc(C(=O)NC4CCN(C)CC4)cc3OC)nc2N1C1CCCC1 [BI-2536]	0.23 µM		0.067 µM	0.068 µM	0.028 µM	0.057 µM	0.034 µM						
CCC1C(=O)N(C)c2cnc(-n3ccc4cc(C(=O)NC5CCCC5)ccc43)nc2N1c1ccn(C)n1 (racemic)		0.0909 µM		31.3 µM		39.5 µM	27.4 µM		inactive	inactive		inactive	
CCCNS(=O)(=O)c1ccc(Nc2ncc3c(n2)N(C2CCCC2)[C@H](CC)C(=O)N3C)cc1	2.1 µM	0.0178 µM	0.344 µM	0.548 µM	0.278 µM	0.563 µM	0.459 µM						
CC[C@@H]1C(=O)N(C)c2cnc(-n3ccc4cc(C(=O)NC(C)C)ccc43)nc2N1C1CCCC1	1.84 µM	0.0174 µM	1.67 µM	0.786 µM	1.66 µM	1.78 µM	0.292 µM						
CCC1C(=O)N(C)c2cnc(Nc3ccc(S(=O)(=O)NCCCO)cc3)nc2N1c1ccn(C)n1 (racemic)	25.8 µM	0.192 µM	21.6 µM	13.4 µM		48.9 µM	23.7 µM					inactive	
CC[C@@H]1C(=O)N(C)c2cnc(Nc3ccc(S(=O)(=O)NC)cc3)nc2N1C1CCCC1	1.41 µM	0.0034 µM	0.151 µM	0.222 µM	0.099 µM	0.183 µM	0.148 µM						
CCC1C(=O)N(C)c2cnc(Nc3ccc(S(N)(=O)=O)cc3)nc2N1c1ccn(C)n1 (racemic)		0.121 µM	36.6 µM				12.6 µM		inactive		inactive	inactive	inactive
CCC1C(=O)N(C)c2cnc(Nc3ccc(S(=O)(=O)NC)cc3)nc2N1c1ccn(C)n1 (racemic)	18.8 µM	0.0715 µM	3.75 µM	2.89 µM	11.9 µM	12.6 µM	2.2 µM						
CCCNS(=O)(=O)c1ccc(Nc2ncc3c(n2)N(c2ccn(C)n2)C(CC)C(=O)N3C)cc1 (racemic)	21.7 µM	0.19 µM	3 µM	2.26 µM	8.88 µM	15 µM	2.67 µM						
CC[C@@H]1C(=O)N(C)c2cnc(Nc3ccc(S(=O)(=O)NCC(C)C)cc3)nc2N1C1CCCC1	1.04 µM	0.0218 µM	0.403 µM	0.705 µM	0.411 µM	0.75 µM	0.561 µM						
CCCCNS(=O)(=O)c1ccc(Nc2ncc3c(n2)N(c2ccn(C)n2)C(CC)C(=O)N3C)cc1 (racemic)	4.12 µM	0.191 µM	5.78 µM	4.24 µM	3.75 µM	10.6 µM	4.32 µM						
CCCCNS(=O)(=O)c1ccc(Nc2ncc3c(n2)N(C2CCCC2)[C@H](CC)C(=O)N3C)cc1	1.61 µM	0.0199 µM	0.459 µM	0.412 µM	0.225 µM	0.477 µM	0.451 µM						
CC[C@@H]1C(=O)N(C)c2cnc(-n3ccc4cc(C(=O)NCC(C)C)ccc43)nc2N1C1CCCC1		0.0186 µM	0.953 µM	0.638 µM		1.73 µM	3.28 µM		inactive			inactive	
